Reference: patent US10670605B2, “Cysteine reactive probes and uses thereof” (The Scripps Research Institute, priority 2015, dated 2020)
Structures can show the parent of a compound that is named as a salt.

Assays:
[1] = biological target: T1, Cys residues in primary human T cells (Homo sapiens, UniProt Q13045); assay: isoTOP-ABPP of compound-treated primary human T cells; assay type: cell-based; details: FLU Protein flightless-1 homolog C46 (Q13045)
T1 sequence (Q13045 1-1269): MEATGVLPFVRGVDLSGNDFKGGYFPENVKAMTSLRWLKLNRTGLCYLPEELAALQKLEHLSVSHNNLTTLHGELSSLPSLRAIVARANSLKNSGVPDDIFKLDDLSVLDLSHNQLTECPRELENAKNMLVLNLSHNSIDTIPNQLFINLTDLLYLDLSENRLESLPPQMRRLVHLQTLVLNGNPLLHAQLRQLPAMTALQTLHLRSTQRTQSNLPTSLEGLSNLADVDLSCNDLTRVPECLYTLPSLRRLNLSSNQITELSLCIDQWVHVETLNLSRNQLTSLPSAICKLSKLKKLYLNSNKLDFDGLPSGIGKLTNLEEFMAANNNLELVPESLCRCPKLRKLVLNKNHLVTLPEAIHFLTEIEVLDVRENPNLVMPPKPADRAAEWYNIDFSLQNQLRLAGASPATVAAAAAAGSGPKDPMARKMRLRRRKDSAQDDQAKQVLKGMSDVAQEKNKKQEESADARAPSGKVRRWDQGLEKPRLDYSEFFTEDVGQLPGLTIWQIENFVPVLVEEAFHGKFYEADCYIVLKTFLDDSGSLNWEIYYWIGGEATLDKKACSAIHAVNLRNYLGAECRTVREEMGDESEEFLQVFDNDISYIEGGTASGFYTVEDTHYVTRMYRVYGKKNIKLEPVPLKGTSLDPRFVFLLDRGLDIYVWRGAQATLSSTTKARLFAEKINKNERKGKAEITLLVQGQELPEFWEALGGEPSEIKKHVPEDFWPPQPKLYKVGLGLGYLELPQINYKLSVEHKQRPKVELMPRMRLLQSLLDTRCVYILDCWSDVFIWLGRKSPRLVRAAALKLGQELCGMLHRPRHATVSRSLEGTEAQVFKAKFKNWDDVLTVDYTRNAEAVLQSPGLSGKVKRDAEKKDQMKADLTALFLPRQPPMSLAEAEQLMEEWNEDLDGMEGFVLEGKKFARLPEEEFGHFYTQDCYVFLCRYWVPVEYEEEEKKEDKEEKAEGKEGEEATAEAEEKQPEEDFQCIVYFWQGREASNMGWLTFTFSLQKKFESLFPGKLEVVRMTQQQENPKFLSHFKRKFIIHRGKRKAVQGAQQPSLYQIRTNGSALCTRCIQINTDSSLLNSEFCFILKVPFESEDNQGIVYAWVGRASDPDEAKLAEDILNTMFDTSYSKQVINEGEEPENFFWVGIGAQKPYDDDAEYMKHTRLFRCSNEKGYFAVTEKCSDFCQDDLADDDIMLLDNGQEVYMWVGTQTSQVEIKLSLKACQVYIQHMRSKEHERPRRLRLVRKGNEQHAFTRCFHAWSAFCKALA

[2] = biological target: T2, Cys residues in primary human T cells (Homo sapiens, UniProt Q9UL40); assay: as above; assay type: cell-based; details: ZNF346 C68 (Q9UL40)
T2 sequence (Q9UL40 1-294): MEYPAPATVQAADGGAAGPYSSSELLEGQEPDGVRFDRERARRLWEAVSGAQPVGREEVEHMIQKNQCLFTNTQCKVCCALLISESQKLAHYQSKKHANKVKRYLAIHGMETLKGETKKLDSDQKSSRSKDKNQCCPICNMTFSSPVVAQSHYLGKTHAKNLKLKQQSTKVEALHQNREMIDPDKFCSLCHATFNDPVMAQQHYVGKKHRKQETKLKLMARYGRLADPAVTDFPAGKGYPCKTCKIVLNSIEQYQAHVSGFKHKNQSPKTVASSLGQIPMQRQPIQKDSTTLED

[3] = biological target: T3, Cys residues in primary human T cells (Homo sapiens, UniProt Q16548); assay: as above; assay type: cell-based
T3 sequence (Q16548 1-175): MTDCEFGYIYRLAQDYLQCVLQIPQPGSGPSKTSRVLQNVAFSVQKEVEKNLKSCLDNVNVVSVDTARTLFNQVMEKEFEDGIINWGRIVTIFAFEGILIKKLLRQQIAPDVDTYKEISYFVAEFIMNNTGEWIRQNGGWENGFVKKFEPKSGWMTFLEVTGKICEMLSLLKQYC

[4] = biological target: T4, Cys residues in primary human T cells (Homo sapiens, UniProt O95081); assay: as above; assay type: cell-based; details: AGFG2 C39 (O95081)
T4 sequence (O95081 1-481): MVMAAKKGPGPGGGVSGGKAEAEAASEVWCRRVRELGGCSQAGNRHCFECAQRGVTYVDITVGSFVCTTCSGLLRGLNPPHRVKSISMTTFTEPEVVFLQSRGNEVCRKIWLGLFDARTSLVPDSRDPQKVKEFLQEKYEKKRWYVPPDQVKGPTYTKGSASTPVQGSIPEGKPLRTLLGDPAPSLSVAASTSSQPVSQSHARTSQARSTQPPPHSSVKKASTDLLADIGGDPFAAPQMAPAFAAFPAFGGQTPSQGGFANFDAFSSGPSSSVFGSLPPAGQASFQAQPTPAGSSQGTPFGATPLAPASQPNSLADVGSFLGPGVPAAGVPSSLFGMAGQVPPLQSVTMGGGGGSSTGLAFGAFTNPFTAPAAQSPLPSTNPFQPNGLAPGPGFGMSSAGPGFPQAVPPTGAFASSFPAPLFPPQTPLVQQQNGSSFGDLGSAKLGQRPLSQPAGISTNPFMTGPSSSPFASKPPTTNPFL

[5] = system: primary mouse splenocytes; details: wild type and Nrf2(-/-) splenocytes; cited from earlier work
[6] = system: intracellular GSH in primary human T cells; assay: Quantification of cellular glutathione (GSH) levels; assay type: cell-based; details: DMF 50 μM 2 h; BSO 2.5 mM 4 h
Procedure: Primary human T cells (2.5 million cells/mL, 20 mL per condition) were treated as indicated, harvested by centrifugation (500 g, 8 min, 4° C.), and washed twice with PBS. To the cell pellet was added 75 μL of lysis buffer. […] Protein concentrations were adjusted to at least 5 mg/mL and the assay performed according to manufacturer's instructions (Sigma-Aldrich, CS 1020). Data represent mean±SE for two biological replicates.

## COC(=O)/C=C/C(=O)OC [DMF, dimethyl fumarate]
[1]; DMF 10 μM 4h
  R value (DMSO/DMF): 1.55
[1]; DMF 50 μM 1h
  R value (DMSO/DMF): 2.05
[1]; DMF 50 μM 2h
  R value (DMSO/DMF): 3.57
[1]; DMF 50 μM 4h
  R value (DMSO/DMF): 4.5
[2]; DMF 10 μM 4h
  R value (DMSO/DMF): 1.98
[2]; DMF 50 μM 1h
  R value (DMSO/DMF): 2.5
[2]; DMF 50 μM 2h
  R value (DMSO/DMF): 3.91
[2]; DMF 50 μM 4h
  R value (DMSO/DMF): 4.6
[3]; BCL2A1 C19 (Q16548), DMF 10 μM 4h
  R value (DMSO/DMF): 1,15
[3]; BCL2A1 C19 (Q16548), DMF 25 μM 4h
  R value (DMSO/DMF): 2.19
[3]; BCL2A1 C19 (Q16548), DMF 50 μM 2h
  R value (DMSO/DMF): 2.09
[3]; BCL2A1 C19 (Q16548), DMF 50 μM 4h
  R value (DMSO/DMF): 4.16
[3]; BCL2A1 C55 (Q16548), DMF 50 μM 4h
  R value (DMSO/DMF): 7.18
[4]; DMF 10 μM 4h
  R value (DMSO/DMF): 1.42
[4]; DMF 50 μM 2h
  R value (DMSO/DMF): 3.85
[4]; DMF 50 μM 4h
  R value (DMSO/DMF): 6.39
[5]
  pro-inflammatory cytokine release: inhibits
[6]
  cellular GSH content: significant decrease
